Series [1] is described as follows: Permeability of model drugs across epithelial (MDCK II) barrier on transwell after USMB or sham treatment. The format is in vitro ADME, canine. The note with it: dog, MDCK; 0 MPa (sham); apical-to-basolateral; read-out: apparent permeability coefficient (Papp). As to the method: (§1) For the permeability studies, epithelial cells were cultured as tight monolayers on transwell membranes. […] Prior to cell seeding, the transwell membranes were equilibrated for 10 min with culture medium at room temperature. […] The permeability of various test compounds across epithelial monolayers cultured on transwell membranes was studied in the apical-to-basolateral direction (Figure 1A). […] Ultrasound experiments were performed using an unfocused, single-element transducer with 20 mm diameter (PA420, Precision Acoustics, Dorchester, UK). […] The resulting signal was then amplified (AG1012, T&C Power Conversion Inc., New York, NY, USA) before it was sent to the ultrasound transducer. A dedicated sonication tank compatible with transwell inserts was used for the USMB experiments (Figure 1B). The ultrasound transducer was positioned at the bottom of the bath and about 250 mL of PBS at 37 °C was added. Subsequently, the transwell insert was immersed in the bath with the transwell membrane covered with cells facing down (Figure 1B) at a fixed axial distance (80 mm) from the ultrasound transducer. Transwell inserts were randomly assigned to USMB-treated or sham-treated sample groups. Following immersion of USMB-treated samples in the sonication bath, 500 μL of freshly mixed SonoVue^TM microbubbles (Bracco, Milan, Italy) was injected near the cells using a curved-tip 19G needle (Figure 1C). […] Microbubbles were allowed to float for 1 min so that direct contact with the cells was assured. Subsequently, ultrasound was applied for 1 min with acoustic peak negative pressure (Pneg) ranging between 0.3 and 0.7 MPa. […] Sham-treated samples were immersed in the PBS bath for 2 min and served as negative controls (0 MPa). […] Immediately after USMB treatment, transwell inserts were removed from the sonication bath (containing PBS) and were placed in a new six-well plate. […] The initial concentration of test compounds on the apical side was 1 μCi/mL for propranolol and mannitol and 200 μM for 6-carboxyfluorescein and fluorescent dextrans. An overview of the relevant physicochemical characteristics of the test compounds used in the permeability experiments is given in Table 1. […] The volume of removed sample was replaced with fresh HBSS. During the experiment, cells were kept at 37 °C and shaking at 170 rounds per minute. In the experiments where fluorescent compounds were used, samples were protected from light at all times. The samples containing radioactively-labelled compounds were equilibrated overnight in liquid scintillation cocktail for radiometric detection (Ultima Gold, 6013321, Perkin Elmer) at room temperature. Detection of radioactivity counts was determined by a microplate counter for radiometric counting (MicroBeta, 2450, Perkin Elmer). Intensity of fluorescence signals was determined by a spectrofluorophotometer (FP 8300, Jasco Benelux BV, Utrecht, The Netherlands). 6-carboxyfluorescein was excited at 492 nm and emission was detected at 517/5 nm (center wavelength/bandwidth) and TRITC-dextrans were excited at 550 nm and detected at 575/5 nm. Background radioactivity and fluorescence signal from HBSS were subtracted from the measurements. […] Q is the flux of the test compound (μg/s), C0 is the initial concentration of the test compound at the apical side (μg/mL), and A is the surface area of the transwell membrane (cm^2).

In series [2] the test system is epithelial (MDCK II) cell barrier. Described as above. The format is in vitro ADME, canine. The note with it: for total permeated amount: 0 MPa (sham, absence of USMB), 120 min, apical-to-basolateral; for effect of USMB on permeability across epithelial barrier: increasing ultrasound pressures 0.3-0.7 MPa vs sham. How it is done: as §1
In series [3] the test system is endothelial (HUVEC) barrier. Nature of the series: Permeability of model drugs across endothelial (HUVEC) barrier on transwell. It counts as in vitro ADME, Human. An excerpt: Supplementary Information: The Effect of Microbubble-As-sisted Ultrasound on Molecular Permeability across Cell Barri- […]
Charis Rousou, Josanne de Maar, Boning Qiu, Kim van der Wurff-Jacobs, Marika Ruponen, Arto Urtti, Sabrina Oliveira, Chrit Moonen, Gert Storm, Enrico Mastrobattista and Roel Deckers SI-1. Materials and methods
SI-1.1. Culture of endothelial cells
Human umbilical vein endothelial cells (HUVEC) were acquired from Lonza (Verviers, Belgium) and cultured in Endothelial Basal Medium (EBM-2) supplemented with growth factors (Growth Medium 2 SupplementMix®, PromoCell, Heidelberg Germany) and 0.1% antibiotics (gentamicin/amphotericin B, Gibco, New York, USA). Cells were sub-cultured 1-2 times per week in dilution ratios between 1:3-1:6 and were used up to passage number 7.
SI-1.2. Differentiation of endothelial cells […]
The effect of USMB treatment on the viability of epithelial cells was examined using the AlamarBlue assay. […] Next, the solution from the apical side was removed and fluorescence intensity was analyzed with a spectrofluorophotometer (FP 8300, Jasco) at excitation and emission wavelengths of 571 nm and 584/5 nm (center wavelength/bandwidth), respectively. Cell viability of each group was calculated as percentage fluorescent signal relative to that of sham treated cells. […]

For series [4] the following is noted: cited from earlier work; for Hydrophilic/Lipophilic: classification in Table 1.

Values joined by “and” are separate entries in the source; they are usually repeats but may differ in a detail not shown here. Equal entries are not always repeated. “Also recorded” adds a separate entry of the source.

In general, LogD refers to the decadic logarithm of the distribution of all forms, ionised or not, between an organic phase and buffer at a given pH.

Consider `O=C(O)c1ccc(C(=O)O)c(-c2c3ccc(=O)cc-3oc3cc(O)ccc23)c1` [6-carboxyfluorescein], for which, in series [1], the Papp A→B at 120 min, 200 µM is 0.06 ×10⁻⁶ cm/s. In addition, in series [2], the total permeated amount was 4.06% and 4.1 ± 0.5%; the “effect of USMB on permeability across epithelial barrier” value (“effect of USMB” for short) is given as “did not have a significant effect; also recorded: lack of measurable effect”. The molecule also yielded a permeated amount in series [3] (control samples (0 MPa), 120 minutes, endothelial barrier) of 5.14%. Also, the “Papp endothelial (HUVEC) barrier relative to epithelial (MDCK II) barrier” value in series [3] (sham treatment, absence of USMB) was 22 times and ~ 20 times. Also, the Hydrophilic/Lipophilic result in series [4] is listed as “Hydrophilic”. The LogD in series [4] (octanol/water partition coefficient at pH 7.4) is given as −3.2.
As to `OC[C@@H](O)[C@@H](O)[C@H](O)[C@H](O)CO` [Mannitol, mannitol], in series [2], the total permeated amount worked out at 5.6 ± 1.4% and the “effect of USMB” value is listed as “did not have a significant effect; also recorded: lack of measurable effect”. Moreover, the Hydrophilic/Lipophilic result in series [4] was “Hydrophilic”.
On to `CC(C)NCC(O)COc1cccc2ccccc12` (stereo not shown) [Propranolol, propranolol], for which, in series [2], the total permeated amount came out at 29.1 ± 2.2% and the “effect of USMB” value is recorded as “did not have a significant effect”. Also, in series [4], the Hydrophilic/Lipophilic entry is recorded as “Lipophilic”.

(Values after paper PMC8949944, “The Effect of Microbubble-Assisted Ultrasound on Molecular Permeability across Cell Barriers” (Pharmaceutics, 2022).)
